Converted amounts (≈) assume the structure as drawn.
What was measured:
HSV-1 = assay: HSV Antiviral (ELISA) Assay; assay type: cell-based, herpes simplex virus type 1; conditions: Vero cells, HSV-1; for IC50: Human alphaherpesvirus 1, Vero, read-out: IC50 Ug/ml HSV
Outline: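 Replication measured as glycoprotein D signal in fixed cells: anti-gD antibody plus β-galactosidase-linked secondary, fluorogenic substrate read at 365/450 nm. Vero cells (2% FBS DMEM) received compound 30 min pre-infection, HSV-1 MOI 0.006, ~24 h incubation; IC50 relative to no-compound fluorescence.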

HCMV wild-type = assay: HCMV yield assay; assay type: cell-based, human cytomegalovirus; conditions: human foreskin fibroblasts; for IC50: Human betaherpesvirus 5, Fibroblast, read-out: IC50 Ug/ml HCMV
Outline: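 Value is the compound amount cutting virus yield titer by 50% (IC50) or 90% (IC90). Human foreskin fibroblasts infected with wild-type HCMV (MOI typically 0.2) under varying compound; progeny harvested day 3, titered compound-free on fibroblasts, plaques scored at 2 weeks.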

VZV strain Ellen = assay: VZV Antiviral (ELISA) Assay; assay type: cell-based, varicella-zoster virus; conditions: human foreskin fibroblast cells; for IC50 / inhibition at 10 µg/mL: Human alphaherpesvirus 3, Fibroblast; for IC50: read-out: IC50 Ug/ml VZV; for inhibition at 10 µg/mL: read-out: % inhibition 10 ug/ml VZV, 10 ug/ml
Outline: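 Low-MOI (<0.1) Ellen infection of HFF overnight; cell mix plated 3.5×10^4/well with compound, DMEM + 2% FBS, 3 d, 37° C, 5% CO2. Fix, anti-gpII mAb ELISA, MUG substrate, fluorescence. IC50 vs compound-free signal.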

CCN(c1ccc(NC(=S)Nc2ccc(NC(C)=O)cc2)cc1Cl)C1CCCCC1 [Example 267, N-(4-{3-[3-Chloro-4-(cyclohexyl-ethyl-amino)-phenyl]-thioureido}-phenyl)-acetamide]
IC50 (HSV-1): > 10 µg/mL
IC50 (HCMV wild-type): > 10 µg/mL
IC50 (VZV strain Ellen): > 10 µg/mL
inhibition at 10 µg/mL (VZV strain Ellen): 25%

COc1cc(OC)c(NC(=S)Nc2ccc(NC(C)=O)cc2)cc1Br [Example 150, N-{4-[3-(5-Bromo-2,4-dimethoxy-phenyl)-thioureido]-phenyl}-acetamide]
IC50 (HSV-1): 9 µg/mL (≈ 21.2 µM)
IC50 (HCMV wild-type): 40 µg/mL (≈ 94.3 µM)
IC50 (VZV strain Ellen): > 10 µg/mL
inhibition at 10 µg/mL (VZV strain Ellen): 3%

CC(=O)Nc1ccc(NC(=S)Nc2cc(Cl)c(OCCOC(C)=O)c(Cl)c2)cc1 [Example 897, Acetic acid 2-{4-[3-(4-acetylamino-phenyl)-thioureido]-2,6-dichloro-phenoxy}-ethyl ester]
IC50 (HSV-1): 40 µg/mL (≈ 87.7 µM)
IC50 (HCMV wild-type): > 10 µg/mL
IC50 (VZV strain Ellen): > 10 µg/mL
inhibition at 10 µg/mL (VZV strain Ellen): 33%

CC(=O)Nc1ccc(NC(=S)Nc2ccc(NS(C)(=O)=O)c(Cl)c2)cc1 [Example 369, N-{4-[3-(3-Chloro-4-methanesulfonylamino-phenyl)-thioureido]-phenyl}-acetamide]
IC50 (HSV-1): > 10 µg/mL
IC50 (HCMV wild-type): > 10 µg/mL
IC50 (VZV strain Ellen): > 10 µg/mL
inhibition at 10 µg/mL (VZV strain Ellen): 0%

CC(=O)Nc1ccc(NC(=S)Nc2ccc(N(C)C3CCN(C)CC3)c(Cl)c2)cc1 [Example 841, N-[4-(3-{3-Chloro-4-[methyl-(1-methyl-piperidin-4-yl)-amino]-phenyl}-thioureido)-phenyl]-acetamide]
IC50 (HSV-1): > 50 µg/mL
IC50 (HCMV wild-type): 0.9 µg/mL (≈ 2.02 µM)
IC50 (VZV strain Ellen): > 10 µg/mL
inhibition at 10 µg/mL (VZV strain Ellen): 30%

CC(=O)Nc1ccc(NC(=S)Nc2cc(C)c(O)c(Cl)c2)cc1 [Example 128, N-{4-[3-(3-Chloro-4-hydroxy-5-methyl-phenyl)-thioureido]-phenyl}-acetamide]
IC50 (HSV-1): 15 µg/mL (≈ 42.9 µM)
IC50 (HCMV wild-type): 15 µg/mL (≈ 42.9 µM)
IC50 (VZV strain Ellen): > 10 µg/mL
inhibition at 10 µg/mL (VZV strain Ellen): 35%

CC(=O)Nc1ccc(NC(=S)Nc2ccc([N+](=O)[O-])cc2)cc1 [Example 879, N-{4-[3-(4-Nitro-phenyl)-thioureido]-phenyl}-acetamide]
IC50 (HSV-1): > 50 µg/mL
IC50 (HCMV wild-type): > 10 µg/mL
IC50 (VZV strain Ellen): > 10 µg/mL
inhibition at 10 µg/mL (VZV strain Ellen): 16%

N-{4-[3-(4-Acetylamino-phenyl)-thioureido]-2-chloro-phenyl}-2-pyrrolidin-1-yl-acetamide [Example 415]
IC50 Ug/ml HSV (HSV-1): >10 Ug/ml
IC50 Ug/ml HCMV (HCMV wild-type): >10 Ug/ml
% inhibition 10 ug/ml VZV (VZV strain Ellen): 26%
IC50 Ug/ml VZV (VZV strain Ellen): 4.5 Ug/ml

COc1c(NC(=S)Nc2ccc(NC(C)=O)cc2)cc(Cl)c(C)c1Cl [Example 152, N-{4-[3-(3,5-Dichloro-2-methoxy-4-methyl-phenyl)-thioureido]-phenyl}-acetamide]
IC50 Ug/ml HSV (HSV-1): 2 Ug/ml
IC50 Ug/ml HCMV (HCMV wild-type): 0.8 Ug/ml
% inhibition 10 ug/ml VZV (VZV strain Ellen): 70%
IC50 Ug/ml VZV (VZV strain Ellen): 7.5 Ug/ml

CC(=O)Nc1ccc(NC(=S)Nc2ccc(NC(=O)CN3CCCCC3)c(Cl)c2)cc1 [Example 363, N-{4-[3-(4-Acetylamino-phenyl)-thioureido]-2-chloro-phenyl}-2-piperidin-1-yl-acetamide]
IC50 (HSV-1): > 10 µg/mL
IC50 (HCMV wild-type): 7 µg/mL (≈ 15.2 µM)
IC50 (VZV strain Ellen): > 10 µg/mL
inhibition at 10 µg/mL (VZV strain Ellen): 58%

COc1ccc(NC(=S)Nc2ccc(NC(C)=O)cc2)c(OC)c1Cl [Example 179, N-{4-[3-(3-Chloro-2,4-dimethoxy-phenyl)-thioureido]-phenyl}-acetamide]
IC50 (HSV-1): 5 µg/mL (≈ 13.2 µM)
IC50 (HCMV wild-type): > 50 µg/mL
IC50 (VZV strain Ellen): > 10 µg/mL
inhibition at 10 µg/mL (VZV strain Ellen): 35%

COc1cc(OC)c(NC(=S)Nc2cc(C)c(NC(C)=O)cc2Cl)cc1Cl [Example 326, N-{5-Chloro-4-[3-(5-chloro-2,4-dimethoxy-phenyl)-thioureido]-2-methyl-phenyl}-acetamide]
IC50 (HSV-1): 10 µg/mL (≈ 23.3 µM)
IC50 (HCMV wild-type): > 10 µg/mL
IC50 (VZV strain Ellen): > 10 µg/mL
inhibition at 10 µg/mL (VZV strain Ellen): 19%

CC(=O)Nc1ccc(NC(=S)Nc2ccc(C(F)(F)F)c(Cl)c2)cc1 [Example 908, N-{4-[3-(3-Chloro-4-trifluoromethyl-phenyl)-thioureido]-phenyl}-acetamide]
IC50 (HSV-1): > 10 µg/mL
IC50 (HCMV wild-type): 0.6 µg/mL (≈ 1.55 µM)
IC50 (VZV strain Ellen): > 10 µg/mL
inhibition at 10 µg/mL (VZV strain Ellen): 36%

CC(=O)Nc1ccc(NC(=S)Nc2ccc(N(C)CC(C)C)c(Cl)c2)cc1 [Example 907, N-(4-{3-[3-Chloro-4-(isobutyl-methyl-amino)-phenyl]-thioureido}-phenyl)-acetamide]
IC50 (HSV-1): > 10 µg/mL
IC50 (HCMV wild-type): 3 µg/mL (≈ 7.41 µM)
IC50 (VZV strain Ellen): > 10 µg/mL
inhibition at 10 µg/mL (VZV strain Ellen): 19%

CC(=O)Nc1ccc(NC(=S)Nc2ccc(OC(=O)c3ccccc3)cc2O)cc1 [Example 113, Benzoic acid 4-[3-(4-acetylamino-phenyl)-thioureido]-3-hydroxy-phenylester]
IC50 (HSV-1): 50 µg/mL (≈ 119 µM)
IC50 (HCMV wild-type): 45 µg/mL (≈ 107 µM)
IC50 (VZV strain Ellen): > 10 µg/mL
inhibition at 10 µg/mL (VZV strain Ellen): 39%

COc1ccc(NC(=S)Nc2ccc(NC(C)=O)cc2)c(O)c1 [Example 132, N-{4-[3-(2-Hydroxy-4-methoxy-phenyl)-thioureido]-phenyl}-acetamide]
IC50 (HSV-1): > 50 µg/mL
IC50 (HCMV wild-type): > 50 µg/mL
IC50 (VZV strain Ellen): > 10 µg/mL
inhibition at 10 µg/mL (VZV strain Ellen): 11%

CC(=O)Nc1ccc(NC(=S)Nc2cc(Cl)c(O)c(Cl)c2)cc1 [Example 108, N-{4-[3-(3,5-Dichloro-4-hydroxy-phenyl)-thioureido]-phenyl}-acetamide]
IC50 (HSV-1): 50 µg/mL (≈ 135 µM)
IC50 (HCMV wild-type): > 50 µg/mL
IC50 (VZV strain Ellen): > 10 µg/mL
inhibition at 10 µg/mL (VZV strain Ellen): 28%

COC(=O)COc1c(Cl)cc(NC(=S)Nc2ccc(NC(C)=O)cc2)cc1Cl [Example 883, {4-[3-(4-Acetylamino-phenyl)-thioureido]-2,6-dichloro-phenoxy}-acetic acid methyl ester]
IC50 (HSV-1): 50 µg/mL (≈ 113 µM)
IC50 (HCMV wild-type): > 10 µg/mL
IC50 (VZV strain Ellen): > 10 µg/mL
inhibition at 10 µg/mL (VZV strain Ellen): 17%

CCCCOc1ccc(NC(=S)Nc2ccc(NC(C)=O)cc2)cc1Cl [Example 266, N-{4-[3-(4-Butoxy-3-chloro-phenyl)-thioureido]-phenyl}-acetamide]
IC50 (HSV-1): 12 µg/mL (≈ 30.6 µM)
IC50 (HCMV wild-type): > 10 µg/mL
IC50 (VZV strain Ellen): > 10 µg/mL
inhibition at 10 µg/mL (VZV strain Ellen): 10%

CC(=O)Nc1ccc(NC(=S)Nc2ccc(NC(C)=O)c(Cl)c2)cc1 [Example 312, N-{4-[3-(4-Acetylamino-phenyl)-thioureido]-2-chloro-phenyl}-acetamide]
IC50 (HSV-1): 50 µg/mL (≈ 133 µM)
IC50 (HCMV wild-type): 50 µg/mL (≈ 133 µM)
IC50 (VZV strain Ellen): > 10 µg/mL
inhibition at 10 µg/mL (VZV strain Ellen): 22%

COC(=O)COc1cc(OC)c(NC(=S)Nc2ccc(NC(C)=O)cc2)cc1Cl [Example 217, {4-[3-(4-Acetylamino-phenyl)-thioureido]-2-chloro-5-methoxy-phenoxy}-acetic acid methyl ester]
IC50 (HSV-1): > 50 µg/mL
IC50 (HCMV wild-type): > 10 µg/mL
IC50 (VZV strain Ellen): > 10 µg/mL
inhibition at 10 µg/mL (VZV strain Ellen): 10%

COc1c(I)cc(NC(=S)Nc2ccc(NC(C)=O)cc2)c(OC)c1I [Example 893, N-{4-[3-(3,5-Diiodo-2,4-dimethoxy-phenyl)-thioureido]-phenyl}-acetamide]
IC50 (HSV-1): 20 µg/mL (≈ 33.5 µM)
IC50 (HCMV wild-type): 7 µg/mL (≈ 11.7 µM)
IC50 (VZV strain Ellen): 2.5 µg/mL (≈ 4.19 µM)
inhibition at 10 µg/mL (VZV strain Ellen): 76%

COc1cc(OCc2ccccc2)c(Cl)cc1NC(=S)Nc1ccc(NC(C)=O)cc1 [Example 836, N-{4-[3-(4-Benzyloxy-5-chloro-2-methoxy-phenyl)-thioureido]-phenyl}-acetamide]
IC50 (HSV-1): 8 µg/mL (≈ 17.5 µM)
IC50 (HCMV wild-type): > 10 µg/mL
IC50 (VZV strain Ellen): 2.5 µg/mL (≈ 5.48 µM)
inhibition at 10 µg/mL (VZV strain Ellen): 92%

COc1c(C)cc(NC(=S)Nc2ccc(NC(C)=O)cc2)cc1Cl [Example 877, N-{4-[3-(3-Chloro-4-methoxy-5-methyl-phenyl)-thioureido]-phenyl}-acetamide]
IC50 (HSV-1): 30 µg/mL (≈ 82.4 µM)
IC50 (HCMV wild-type): 2 µg/mL (≈ 5.5 µM)
IC50 (VZV strain Ellen): > 10 µg/mL
inhibition at 10 µg/mL (VZV strain Ellen): 15%

CC(=O)Nc1ccc(NC(=S)Nc2ccc(N(C)C3CCCCC3)c(Cl)c2)cc1 [Example 203]
IC50 Ug/ml HSV (HSV-1): >10 Ug/ml
IC50 Ug/ml HCMV (HCMV wild-type): 2 Ug/ml
% inhibition 10 ug/ml VZV (VZV strain Ellen): 22%
IC50 Ug/ml VZV (VZV strain Ellen): >10 Ug/ml

CC(=O)Nc1ccc(NC(=S)Nc2ccc(N3CCCC4CCCCC43)c(Cl)c2)cc1 (centres unmarked) [Example 282, N-(4-{3-[3-Chloro-4-(octahydro-quinolin-1-yl)-phenyl]-thioureido}-phenyl)-acetamide]
IC50 (HSV-1): > 10 µg/mL
IC50 (HCMV wild-type): > 10 µg/mL
IC50 (VZV strain Ellen): > 10 µg/mL
inhibition at 10 µg/mL (VZV strain Ellen): 50%

COc1cc(OC)c(NC(=S)Nc2ccc(NC(C)=O)c(C(F)(F)F)c2)cc1Cl [Example 305, N-{4-[3-(5-Chloro-2,4-dimethoxy-phenyl)-thioureido]-2-trifluoromethyl-phenyl}-acetamide]
IC50 (HSV-1): > 10 µg/mL
IC50 (HCMV wild-type): > 10 µg/mL
IC50 (VZV strain Ellen): > 10 µg/mL
inhibition at 10 µg/mL (VZV strain Ellen): 32%

CC(=O)Nc1ccc(NC(=S)Nc2ccc(NC(=O)CSCCN(C)C)c(Cl)c2)cc1 [Example 372, N-{4-[3-(4-Acetylamino-phenyl)-thioureido]-2-chloro-phenyl}-2-(2-dimethylamino-ethylsulfanyl)-acetamide]
IC50 (HSV-1): > 10 µg/mL
IC50 (HCMV wild-type): > 10 µg/mL
IC50 (VZV strain Ellen): > 10 µg/mL
inhibition at 10 µg/mL (VZV strain Ellen): 53%

CC(=O)Nc1ccc(NC(=S)Nc2ccc(OCC#N)c(Cl)c2)cc1 [Example 251, N-(4-{3-[3-Chloro-4-(2-nitrilo-ethoxy)-phenyl]-thioureido}-phenyl)-acetamide]
IC50 (HSV-1): > 50 µg/mL
IC50 (HCMV wild-type): 7 µg/mL (≈ 18.7 µM)
IC50 (VZV strain Ellen): > 10 µg/mL
inhibition at 10 µg/mL (VZV strain Ellen): 22%
